From patent publication US9233978B2, “6-fused heteroaryldihydropyrimidines for the treatment and prophylaxis of hepatitis B virus infection” (Hoffmann-La Roche Inc., priority 2014, dated 2016) come the findings set out here.

The subject of data set [1] is HBV. Briefly: Anti-HBV activity in vitro, HepG2.2.15 cells, extracellular HBV DNA by qPCR. It is filed as cell-based. The settings on record: Hepatitis B virus, HepG2.2.15, 120 h, HepG2.2.15 cells; HBV replication inhibited by 50%, extracellular HBV DNA by qPCR; five days after compound treatment; read-out: EC50. In a few lines:
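Extracellular HBV DNA in culture supernatant was measured by qPCR after nucleic acid extraction. The supernatant came from constitutively replicating HepG2.2.15 cells exposed for five days to half-log-diluted compounds, with DMSO at 0.5% final. Cells had been plated overnight at 37 °C beforehand.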

Data set [2] is described as follows: Cytotoxicity in HepDE19 cells (CCK-8) and selectivity index. The settings on record: human, HepDE19 cells; CCK-8 cell viability; five days after treatment. It is filed as cell-based. From the text:
(§1) HepG2.2.15 and HepDE19 are stably-transfected cell lines containing the HBV genome. Both cell lines are derived from the hepatoblastoma cell line Hep G2 (American Type Culture Collection, ATCC® HB-8065™) by the published procedures described in references: MA Selles et al. Proc. Natl. Acad. Sci. USA 1987, 84, 1005-1009 and H Guo et al. Journal of Virology 2007, 81, 12472-12484, respectively. Both cell lines were maintained in Dulbecco's modified Eagle's medium (DMEM)-F12 medium supplemented with 10% fetal bovine serum, 100 U/mL penicillin, 100 μg/mL streptomycin, and 0.5 mg/mL of G418.
(§2) HepDE19 cells were seeded into 96-well plates (5×10^3 cells per well) and treated with compounds for EC50 determination. Five days after treatment, cell viability was measured by addition of 20 μL of CCK-8 reagent. Two hours after incubation at 37° C., the absorbance at wavelengths of 450 nm and 630 nm (OD450 and OD630) was recorded by a plate reader. The concentration results in the death of 50% of the host cells (CC50) of each compound were determined.
(§3) The relative effectiveness of the compound in inhibiting viral replication compared to inducing cell death was defined as the selectivity index (CC50 value/EC50 value). Based on CC50 and EC50 data, selectivity indexes were determined.

The subject of data set [3] is HepDE19 cells. The data set is described as above. It is filed as cell-based. The settings on record: CC50 (HepDE19) value / EC50 (HepG2.2.15) value.
Excerpt: as §1, §2, §3

Data set [4] is described as follows: Human microsomal metabolic stability. The format is in vitro ADME. The settings on record: human microsomes 0.5 mg/mL, 1 μM test compound, NADPH, 37° C., pH 7.4, 0-30 minutes. In short, it runs like this:
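1 μM compound with 0.5 mg/mL human liver microsomal protein in 100 mM phosphate pH 7.4 at 37° C, started with 1 mM NADPH or a NADPH-regenerating system. Sampled at 0–30 min, quenched in cold methanol with tolbutamide internal standard; remaining parent quantified by LC-MS/MS.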

Data set [5] can be described thus: Lysa solubility. It is filed as physicochemical. The settings on record: 0.05 M phosphate buffer (pH 6.5); for solubility thermodynamic: phosphate buffer, pH 6.5, aqueous buffer, thermodynamic from solid. In short, it runs like this:
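Duplicate samples dried from 10 mM DMSO stocks, taken up in 0.05 M phosphate buffer pH 6.5, stirred 1 h, shaken 2 h and left overnight. Filtrate and 1/10 dilution quantified by direct UV or HPLC-UV, in μg/mL; above 80% of the calculated maximum, reported as greater than that value.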

In brackets after ≈: the same amount, converted by molar mass.

For `CCOC(=O)C1=C(CN2CCN3C(=O)N(CC4CC(C(=O)O)C4)C[C@@H]3C2)NC(c2nccs2)=N[C@H]1c1cccc(F)c1Cl` (stereo partly drawn) [Example 81, 3-[[(8aS)-7-[[(4R)-4-(2-chloro-3-fluoro-phenyl)-5-ethoxycarbonyl-2-thiazol-2-yl-1,4-dihydropyrimidin-6-yl]methyl]-3-oxo-5,6,8,8a-tetrahydro-1H-imidazo[1,5-a]pyrazin-2-yl]methyl]cyclobutanecarboxylic acid], the EC50 in data set [1] was found to be 10 nM. Further, half-maximal cytotoxicity in data set [2] (CC50 at 5 days) was put at 85000 nM. Moreover, in data set [3], the “Selectivity index (CC50/EC50)” value amounted to 8500. Also, the “Human Microsomal Clearance” value in data set [4] was determined as 0.1 mL/min/kg. This compound also registered a solubility (thermodynamic) in data set [5] of 279 µg/mL (≈ 442 µM).

For the compound `COC(=O)C1=C(CN2CCN3C(=O)N(C4CCC(C(=O)O)C4)C[C@@H]3C2)NC(c2nccs2)=N[C@H]1c1ccc(F)cc1Cl` (mixture of isomers) [Example 61, (R)-6-[(S)-2-((1R,3S)-3-Carboxy-cyclopentyl)-3-oxo-hexahydro-imidazo[1,5-a]pyrazin-7-ylmethyl]-4-(2-chloro-4-fluoro-phenyl)-2-thiazol-2-yl-1,4-dihydro-pyrimidine-5-carboxylic acid methyl ester and (R)-6-[(S)-2-((1S,3R)-3-Carboxy-cyclopentyl)-3-oxo-hexahydro-imidazo[1,5-a]pyrazin-7-ylmethyl]-4-(2-chloro-4-fluoro-phenyl)-2-thiazol-2-yl-1,4-dihydro-pyrimidine-5-carboxylic acid methyl ester], in data set [1], the concentration for a half-maximal effect (EC50) stood at 12 nM. In data set [2], this compound gave a CC50 at 5 days of more than 100000 nM. The “Selectivity index (CC50/EC50)” value in data set [3] is more than 8333. Besides, in data set [4], the “Human Microsomal Clearance” value was found to be 0.4 mL/min/kg. Besides, the solubility (thermodynamic) in data set [5] was more than 742 µg/mL.

Turning to `CCOC(=O)C1=C(CN2CCN3C(=O)OC[C@@H]3[C@H]2C(=O)O)NC(c2nccs2)=N[C@H]1c1cccc(F)c1Cl` (single isomer, unassigned) [Example 102B], in data set [1], the EC50 is 14 nM. In data set [2], this compound came in with a CC50 at 5 days of more than 100000 nM. For the same compound, the “Selectivity index (CC50/EC50)” value in data set [3] is more than 7142. The “Human Microsomal Clearance” value in data set [4] is 6.2 mL/min/kg. The thermodynamic solubility in data set [5] was more than 665 µg/mL.

Turning to `COC(=O)C1=C(CN2CCN3C(=O)N(CC(C)(C)C(=O)O)C[C@@H]3C2)NC(c2nccs2)=N[C@H]1c1cccc(F)c1C` [Example 44, 3-[(8aS)-7-[[(4S)-4-(3-fluoro-2-methyl-phenyl)-5-methoxycarbonyl-2-thiazol-2-yl-1,4-dihydropyrimidin-6-yl]methyl]-3-oxo-5,6,8,8a-tetrahydro-1H-imidazo[1,5-a]pyrazin-2-yl]-2,2-dimethyl-propanoic acid], the EC50 in data set [1] amounted to 16 nM. In addition, the CC50 at 5 days in data set [2] is more than 100000 nM. Also, the “Selectivity index (CC50/EC50)” value in data set [3] is reported as more than 6369. The “Human Microsomal Clearance” value in data set [4] is 1.7 mL/min/kg. The solubility (thermodynamic) in data set [5] is 207 µg/mL (≈ 354 µM).

With `COC(=O)C1=C(CN2CCN3C(=O)N(C4CC4)C[C@@H]3[C@H]2C(=O)O)NC(c2nccs2)=N[C@H]1c1ccc(F)c(F)c1C` (single isomer, unassigned) [Example 83B], the EC50 in data set [1] was 9 nM. Also, the cytotoxic concentration (CC50) at 5 days in data set [2] is more than 100000 nM. In data set [3], the “Selectivity index (CC50/EC50)” value is more than 11111. Besides, in data set [4], the “Human Microsomal Clearance” value is 2.9 mL/min/kg. In addition, in data set [5], the “Lysa” value was found to be 780 µg/mL.

Consider `CCOC(=O)C1=C(CN2CCN3C(=O)CC[C@@H]3[C@H]2C(=O)O)NC(c2nccs2)=N[C@H]1c1cccc(F)c1Cl` (racemic) [Example 99, 2-[[(4R)-4-(2-chloro-3-fluoro-phenyl)-5-ethoxycarbonyl-2-thiazol-2-yl-1,4-dihydropyrimidin-6-yl]methyl]-6-oxo-1,3,4,7,8,8a-hexahydropyrrolo[1,2-a]pyrazine-1-carboxylic acid], for which the EC50 in data set [1] was 14 nM. The compound further showed a cytotoxic concentration (CC50) at 5 days in data set [2] of more than 100000 nM. Besides, the “Selectivity index (CC50/EC50)” value in data set [3] is more than 7142. The “Human Microsomal Clearance” value in data set [4] turned out to be 6.1 mL/min/kg. In data set [5], the thermodynamic solubility was more than 710 µg/mL.

The term EC50 denotes the concentration that produces a half-maximal response. Broadly, the CC50 is the concentration that lowers cell viability or growth by half. The low end stands for greater toxicity to the cells, the high end for lower toxicity to the cells. The term thermodynamic solubility denotes solubility found after equilibrating the solid with the medium.
